What was measured:
[1] = test system: S. aureus; test: MIC testing, broth microdilution (NCCLS), S. aureus; format: cell-based, Staphylococcus aureus; conditions: for SA24 (MIC): S. aureus after 24 hours exposure; for SA48 (MIC): S. aureus after 48 hours exposure
Description: (§1) The broth microdilution format of the National Committee for Clinical Laboratory Standards (NCCLS) approved standard for susceptibility tests as outlined in M7-A4 “methods for dillution Antimicrobial susceptibility tests for bacteria that grow aerobically; approved standard—fifth edition”, January 2000 was utilized for minimum inhibitory concentration testing in Mueller-Hinton broth. The broth for Streptococcus pyogenes testing was supplemented with 2% laked horse blood. A positive result in initial testing was determined by complete inhibition of macroscopic bacterial growth at a concentration of 128 micrograms per mL after incubation for 16 to 24 hours at 37 degrees C. In the case of Micrococcus luteus, incubation was at 30 degrees C. […] Bacterial Types Are: • SA24 S. aureus after 24 hours exposure • SA48 S. aureus after 48 hours exposure • EC24 E. coli after 24 hours exposure

[2] = test system: Micrococcus luteus (ATCC272); test: MIC testing, additional organisms: Micrococcus luteus; format: cell-based; conditions: incubation at 30 degrees C
Description: (§2) The broth microdilution format of the National Committee for Clinical Laboratory Standards (NCCLS) approved standard for susceptibility tests as outlined in M7-A4 “methods for dillution Antimicrobial susceptibility tests for bacteria that grow aerobically; approved standard—fifth edition”, January 2000 was utilized for minimum inhibitory concentration testing in Mueller-Hinton broth. The broth for Streptococcus pyogenes testing was supplemented with 2% laked horse blood. A positive result in initial testing was determined by complete inhibition of macroscopic bacterial growth at a concentration of 128 micrograms per mL after incubation for 16 to 24 hours at 37 degrees C. In the case of Micrococcus luteus, incubation was at 30 degrees C.
(§3) Bacterial Types Are: • SA24 S. aureus after 24 hours exposure • SA48 S. aureus after 48 hours exposure • EC24 E. coli after 24 hours exposure
(§4) The following compounds were tested against additional organisims with the following results. • 1. Micrococcus luteus (ATCC272) • 2. Staphylococcus aureus (ATCC29213) • 3. Staphylococcus aureus (ATCC43300) MRSA • 4. Enterococcus faecalis (ATCC29212) • 5. Enterococcus faecalis (ATCCS 1299) Vancomycin resistant • 6. Streptococcus pyrogenes (ATCC8668)

[3] = test system: Staphylococcus aureus (ATCC29213); test: MIC testing, additional organisms: Staphylococcus aureus ATCC29213; format: cell-based
Description: as §2, §3, §4

[4] = test system: Staphylococcus aureus (ATCC43300) MRSA; test: MIC testing, additional organisms: Staphylococcus aureus MRSA; format: cell-based
Description: as §2, §3, §4

[5] = test system: Enterococcus faecalis (ATCC29212); test: MIC testing, additional organisms: Enterococcus faecalis ATCC29212; format: cell-based
Description: as §2, §3, §4

[6] = test system: Enterococcus faecalis (ATCCS 1299) Vancomycin resistant; test: MIC testing, additional organisms: Enterococcus faecalis vancomycin resistant; format: cell-based
Description: as §2, §3, §4

[7] = test system: Streptococcus pyrogenes (ATCC8668); test: MIC testing, additional organisms: Streptococcus pyrogenes; format: cell-based; conditions: broth supplemented with 2% laked horse blood
Description: as §2, §3, §4

[8] = test system: E. coli; test: MIC testing, broth microdilution (NCCLS), E. coli; format: cell-based; conditions: E. coli after 24 hours exposure
Description: as §1

| Compound | SA24 (MIC) [1] | SA48 (MIC) [1] | MIC, organism 1 [2] | MIC, organism 2 [3] | MIC, organism 3 [4] | MIC, organism 4 [5] | MIC, organism 5 [6] | MIC, organism 6 [7] | EC24 (MIC) [8] |
| --- | --- | --- | --- | --- | --- | --- | --- | --- | --- |
| CCCCCCCCCCN[C@H]1C(CO)OCC(NC(=O)Nc2cccc(C(F)(F)F)c2)[C@H]1O[C@@H]1OC(CO)[C@@H](O)[C@H](O)C1NC(=O)Nc1cccc(C(F)(F)F)c1 (stereo partly drawn) [compound 56] | + (+ indicates an MIC value of less than 128 micrograms per mL) | + (+ indicates an MIC value of less than 128 micrograms per mL) | + (+ indicates an MIC value of less than 128 micrograms per mL) | + (+ indicates an MIC value of less than 128 micrograms per mL) | + (+ indicates an MIC value of less than 128 micrograms per mL) | + (+ indicates an MIC value of less than 128 micrograms per mL) | + (+ indicates an MIC value of less than 128 micrograms per mL) | + (+ indicates an MIC value of less than 128 micrograms per mL) |  |
| CCCCCCCC(=O)Nc1ccc(C(=O)NC2C(CO)OCC(NC(=O)Nc3cccc(C(F)(F)F)c3)C2OC2OC(CO)C(O)C(O)C2NC(=O)Nc2cccc(C(F)(F)F)c2)cc1 (stereo not drawn) [compound 65] | + (+ indicates an MIC value of less than 128 micrograms per mL) | + (+ indicates an MIC value of less than 128 micrograms per mL) | + (+ indicates an MIC value of less than 128 micrograms per mL) | − (− indicates an MIC of greater then 128 micrograms per mL) | − (− indicates an MIC of greater then 128 micrograms per mL) | + (+ indicates an MIC value of less than 128 micrograms per mL) | − (− indicates an MIC of greater then 128 micrograms per mL) | + (+ indicates an MIC value of less than 128 micrograms per mL) |  |
| O=C(Nc1cccc(C(F)(F)F)c1)NC1COC(CO)C(NC(=O)c2ccc(Oc3ccccc3)cc2)C1OC1OC(CO)C(O)C(O)C1NC(=O)Nc1cccc(C(F)(F)F)c1 (stereo not drawn) [compound 73] | + (+ indicates an MIC value of less than 128 micrograms per mL) |  | + (+ indicates an MIC value of less than 128 micrograms per mL) | + (+ indicates an MIC value of less than 128 micrograms per mL) | + (+ indicates an MIC value of less than 128 micrograms per mL) | + (+ indicates an MIC value of less than 128 micrograms per mL) | + (+ indicates an MIC value of less than 128 micrograms per mL) | + (+ indicates an MIC value of less than 128 micrograms per mL) |  |
| CCCCCCCCCCS(=O)(=O)NC1C(CO)OCC(NC(=O)Nc2cccc(C(F)(F)F)c2)C1OC1OC(CO)C(O)C(O)C1NC(=O)Nc1cccc(C(F)(F)F)c1 (stereo not drawn) [compound 69] | + (+ indicates an MIC value of less than 128 micrograms per mL) |  | + (+ indicates an MIC value of less than 128 micrograms per mL) | + (+ indicates an MIC value of less than 128 micrograms per mL) | + (+ indicates an MIC value of less than 128 micrograms per mL) | + (+ indicates an MIC value of less than 128 micrograms per mL) | − (− indicates an MIC of greater then 128 micrograms per mL) | + (+ indicates an MIC value of less than 128 micrograms per mL) |  |
| CCCCCCCCCCCCC(=O)NC1C(CO)OCC(NC(=O)Nc2cccc(C(F)(F)F)c2)C1OC1OC(CO)C(O)C(O)C1NC(=O)Nc1cccc(C(F)(F)F)c1 (stereo not drawn) [compound 76] | + (+ indicates an MIC value of less than 128 micrograms per mL) |  | + (+ indicates an MIC value of less than 128 micrograms per mL) | + (+ indicates an MIC value of less than 128 micrograms per mL) | + (+ indicates an MIC value of less than 128 micrograms per mL) | + (+ indicates an MIC value of less than 128 micrograms per mL) | + (+ indicates an MIC value of less than 128 micrograms per mL) | + (+ indicates an MIC value of less than 128 micrograms per mL) |  |
| O=C(Nc1cccc(C(F)(F)F)c1)NC1C(OC2C(NC(=O)OCc3ccccc3)COC(CO)C2NC(=O)c2ccc(-c3ccccc3)cc2)OC(CO)C(O)C1O (stereo not drawn) [compound 8] | + (+ indicates an MIC value of less than 128 micrograms per mL) | + (+ indicates an MIC value of less than 128 micrograms per mL) |  |  |  |  |  |  | − (− indicates an MIC of greater then 128 micrograms per mL) |
| O=C(Nc1cccc(C(F)(F)F)c1)NC1COC(CO)[C@H](NC(=O)c2ccc(-c3ccccc3)cc2)[C@@H]1O[C@@H]1OC(CO)[C@@H](O)[C@H](O)C1NS(=O)(=O)c1cccc(C(F)(F)F)c1 (stereo partly drawn) [compound 48] | + (+ indicates an MIC value of less than 128 micrograms per mL) | + (+ indicates an MIC value of less than 128 micrograms per mL) |  |  |  |  |  |  | − (− indicates an MIC of greater then 128 micrograms per mL) |
| N=C(Nc1cccc(C(F)(F)F)c1)NC1[C@H](O[C@@H]2C(NC(=N)Nc3cccc(C(F)(F)F)c3)COC(CO)[C@@H]2NCc2ccc(-c3ccccc3)cc2)OC(CO)[C@@H](O)[C@@H]1O (stereo partly drawn) [compound 20] | + (+ indicates an MIC value of less than 128 micrograms per mL) | + (+ indicates an MIC value of less than 128 micrograms per mL) |  |  |  |  |  |  | + (+ indicates an MIC value of less than 128 micrograms per mL) |
| Cc1ccc(S(=O)(=O)NC2COC(CO)[C@H](NC(=O)c3ccc(-c4ccccc4)cc3)[C@@H]2O[C@@H]2OC(CO)[C@@H](O)[C@H](O)C2NC(=O)Nc2cccc(C(F)(F)F)c2)cc1 (stereo partly drawn) [compound 39] | + (+ indicates an MIC value of less than 128 micrograms per mL) | + (+ indicates an MIC value of less than 128 micrograms per mL) |  |  |  |  |  |  | − (− indicates an MIC of greater then 128 micrograms per mL) |
| CCCCCC(=O)NC1C(CO)OCC(NC(=O)Nc2cccc(C(F)(F)F)c2)C1OC1OC(CO)C(O)C(O)C1NC(=O)Nc1cccc(C(F)(F)F)c1 (stereo not drawn) [compound 70] | − (− indicates an MIC of greater then 128 micrograms per mL) |  | + (+ indicates an MIC value of less than 128 micrograms per mL) | − (− indicates an MIC of greater then 128 micrograms per mL) | − (− indicates an MIC of greater then 128 micrograms per mL) | + (+ indicates an MIC value of less than 128 micrograms per mL) | − (− indicates an MIC of greater then 128 micrograms per mL) | + (+ indicates an MIC value of less than 128 micrograms per mL) |  |
| N=C(Nc1cccc(C(F)(F)F)c1)NC1[C@H](O[C@@H]2C(NC(=N)Nc3cccc(C(F)(F)F)c3)COC(CO)[C@@H]2NC(=O)C(N)Cc2ccc(-c3ccccc3)cc2)OC(CO)[C@@H](O)[C@@H]1O (stereo partly drawn) [compound 26] | + (+ indicates an MIC value of less than 128 micrograms per mL) | + (+ indicates an MIC value of less than 128 micrograms per mL) |  |  |  |  |  |  | + (+ indicates an MIC value of less than 128 micrograms per mL) |
| O=C(Nc1cccc(C(F)(F)F)c1)NC1COC(CO)C(NC(=O)c2ccc(-c3ccccc3)cc2)C1OC1OC(CO)C(O)C(O)C1NC(=O)Nc1cccc(C(F)(F)F)c1 (stereo not drawn) [compound 74] | + (+ indicates an MIC value of less than 128 micrograms per mL) |  | + (+ indicates an MIC value of less than 128 micrograms per mL) | + (+ indicates an MIC value of less than 128 micrograms per mL) | + (+ indicates an MIC value of less than 128 micrograms per mL) | + (+ indicates an MIC value of less than 128 micrograms per mL) | + (+ indicates an MIC value of less than 128 micrograms per mL) | + (+ indicates an MIC value of less than 128 micrograms per mL) |  |
